Data set [1] relates to prepulse inhibition of startle. The data set can be described thus: Mouse prepulse inhibition (PPI) and acoustic startle. The format is in vivo. As for the experimental part:
Drug and behaviorally naïve adult male C57BL/6J mice (9–11 weeks of age; n=8 per dose group) were used for PPI experiments. Subjects were tested individually in SR-Lab acoustic startle chambers (San Diego Instruments, San Diego CA, USA) equipped with a restrainer mounted atop a piezoelectric accelerometer which measured transduced movement in response to the presentation of audio stimuli presented through a speaker mounted 20 cm above the animal. Subjects were acclimated to an anteroom adjacent to the testing room at minimum 60 min prior to testing. Test sessions began with a 5 min acclimation period to background noise (65 dB) followed by presentation of six randomized repetitions of the 120 dB startle stimulus (40 ms duration) presented alone or paired in combination with a pre-pulse stimulus of 68, 72, or 74 db (20 msec in duration) presented 80 msec prior to the 120 dB startle stimulus, which was equivalent to +3, +7, and +9 db over background noise, respectively. Data were also recorded for no stimulus values to evaluate background level of response. The inter-trial interval between stimulus presentations was randomized and ranged from 10 to 20 s. Test compounds were administered 30 min (s.c.) prior to testing. […] Percent PPI was calculated for each individual subject as the relative change in the 120 dB startle response in the presence of each prepulse intensity using the formula: 100-((prepulse-pulse)/pulse)*100 as previously described ([Ralph-Williams et al., 2003]).
The experiment was analyzed using a two-way mixed model ANOVA (lme4 library in R software). The model included prepulse stimulus intensity levels, treatment (as all combinations of pre-treatment and treatment), and their interaction as fixed factors and random intercept, random slope for each animal as random factors. […] In order to adjust for multiple hypothesis testing we used false discover rate method which controls the expected proportion of false discoveries among the rejected hypotheses. For all statistical tests, p < 0.05 between groups was considered significant.

In data set [2] the test system is ketamine-induced working memory deficits. The data set can be described thus: Spatial delayed response (SDR) task in the nonhuman primate. The class given is in vivo, rhesus monkeys. The source says: This study was designed to test the hypothesis that PF-6142 would provide significant protection versus the ketamine-induced working memory deficits in nonhuman primates.
Rhesus monkeys were trained to stability on a variable SDR task in a sound-attenuated Wisconsin General Testing Apparatus ([Roberts et al., 2010]). Briefly, subjects observe while the investigator baiting one of two to seven wells with a highly preferred food reward and then covers all the wells with identical square plaques. An opaque screen is then lowered for one of five variable delays, which are pseudorandomized across trials within a session. Thus, delays are defined as 0–4 N, where “N” is a value that is animal dependent and ranges from 1 to 10 s depending upon the difficulty level of the task at which an animal reaches the criterion of stable performance. At the end of the delay period, the opaque screen is raised, and the animal must select the well that had been baited to obtain a reward. Each test session consists of 20 trials wherein both the baited well and delay length are pseudorandomized across trials. Before study initiation, all subjects were required to reach stability over a period of 10 consecutive test sessions, where stability was defined as an average of 65–75% correct. Stability was attained by varying the number of wells and the delay value for each animal. Subjects were originally trained on a two-well board with an N value of 1. […] Once stability was attained for a given number of wells and N value, that combination was kept constant throughout the course of the study ([Roberts et al., 2010]). The range of stable performance for the 10 subjects was two to five wells and an N value of 1–7 s (median, four-well testing board, N = 5 s). Data were transformed using logarithmic function [log(x+5)] to improve normality and analyzed using ANOVA.
Subjects received pretreatment with vehicle (sterile saline solution) or PF-6142 (0.0015, 0.015, 0.15 mg/kg, s.c.) 4 h before cognitive testing. They then received an intramuscular injection of either vehicle (sterile saline) or ketamine (0.7–1.7 mg/kg; Fort Dodge Co.) 0.25 h before cognitive testing. […] Thus, for the present study, one monkey received 0.7 mg/kg, seven monkeys received 1.0 mg/kg, and two monkeys received 1.7 mg/kg of ketamine. The vehicle/PF-6142 and vehicle/ketamine treatments were assigned using a randomized Latin square design with a total of eight conditions. Except for the vehicle/vehicle condition, there was a minimum 2-week washout period between all acute challenges during which time animals were required to “restabilize” to baseline performance levels, which was defined as at least three consecutive testing sessions wherein cognitive performance ranged between 65% and 75% correct.

Data set [3] can be described thus: Plasma exposure (PK), mouse. The settings on record: 5.6 mg/kg SC, 1 h. The class given is in vivo. How it is done:
(§1) Across the set of experiments, PK was either collected from satellite animals or in separate, dedicated studies. In addition to plasma PK, exposures were obtained in brain tissue for rat and mouse, and plasma protein binding and brain tissue binding were measured. Using the measured exposures, partitioning, and binding parameters, and the […]

The nature of data set [4]: Plasma exposure (PK), NHP. The format is in vivo. The settings on record: 0.1 mg/kg SC, 0.5 h. As for the experimental part: as §1

Consider `Cc1cc(Oc2nccc3occc23)ccc1-c1c(C)ncc2nccn12` [PF-6142], for which the “effect on %PPI in combination with risperidone” value in data set [1] (PF-6142 1.78 mg/kg + risperidone, 3, 7, 9 dB prepulse) is “no effect”. Besides, the “%PPI vs vehicle” value in data set [1] (PF-6142 1.78 mg/kg alone, significant only at 9 dB prepulse intensity (p=0.029)) is recorded as “modest impairments in %PPI”. Moreover, in data set [1] (adult C57BL/6J mice), the “% PPI, PF-6142 alone (pilot experiments, Figure 4C)” value is on record as “modest non-significant reductions in % PPI”. Also, the “effect on risperidone (0.56 mg/kg)-reduced startle responses” value in data set [1] (in the presence of PF-6142) is listed as “not altered”. The “percent correct on the SDR task after pretreatment + ketamine (range over doses)” value in data set [2] (PF-6142 0.0015-0.15 mg/kg s.c. 4 h before testing) is given as 42.5–52.1%. Further, the “improvement of performance vs ketamine” value in data set [2] (PF-6142 0.0015-0.15 mg/kg s.c., all doses) is “more than 10 % correct”. In addition, in data set [2] (PF-6142 without ketamine), the “working memory performance under normal conditions (pretreatment followed by placebo)” value is “no effect on its own”. For the same compound, the PF-6142 plasma concentration in data set [3] came out at 332 ng/mL; in data set [4], 31 ng/mL.

For the origin of these results see publication PMC7358525, “Characterization of PF-6142, a Novel, Non-Catecholamine Dopamine Receptor D1 Agonist, in Murine and Nonhuman Primate Models of Dopaminergic Activation” (Frontiers in Pharmacology, 2020).
